Entries after “also recorded” stand apart in the source; their conditions may differ. Like-named read-outs stand apart in the source and are kept apart here.
Assays:
Calu-6 = assay: in vivo anti-tumor efficacy, xenograft model Calu-6 (lung, non-small-cell); conditions: 50 mg/kg/d
[1] = tested on: locally advanced/metastatic NSCLC; assay: Phase 3 clinical study LUME LUNG 1 (nintedanib+docetaxel vs placebo+docetaxel); assay type: in vivo, human
Excerpt: LUME LUNG 1 is a placebo-controlled phase 3 trial investigating nintedanib+docetaxel in patients with locally advanced/metastatic NSCLC progressing after one prior combination regimen.
(§1) In the case of a significant interaction between treatment and a continuous variable, not only the categorisation delivered by the recursive partitioning was investigated but hazard ratios HR (treatment effect) were also globally estimated at different values of the interacting covariate.
(§2) Kaplan-Meier plots and Forrest Plots were further used for the graphical presentation of the results.

NCI-H460 = assay: in vivo anti-tumor efficacy, xenograft model NCI-H460 (lung, non-small-cell); conditions: 25 mg/kg/d
FaDu = assay: in vivo anti-tumor efficacy, xenograft model FaDu (head and neck); conditions: 100 mg/kg/d
HT-29 = assay: in vivo anti-tumor efficacy, xenograft model HT-29 (colorectal)
NSCLC = assay: clinical trial evidence as summarised (progression within 9 months or less after initiation of prior treatment); assay type: in vivo, human
Rip-Tag = assay: in vivo anti-tumor efficacy, Rip-Tag model (pancreas, murine transgenic)
Caki-1 = assay: in vivo anti-tumor efficacy, xenograft model Caki-1 (renal); conditions: 100 mg/kg/d
SKOV3 = assay: in vivo anti-tumor efficacy, xenograft model SKOV3 (ovarian); conditions: 50 mg/kg/d
PAC-120 = assay: in vivo anti-tumor efficacy, xenograft model PAC-120 (prostate, hormone-dependent); conditions: 100 mg/kg/d
GS-9L syngeneic rat = assay: in vivo anti-tumor efficacy, syngeneic rat tumor model GS-9L (glioblastoma); conditions: 50 mg/kg/d
advanced NSCLC tumours = assay: Phase 3 clinical study LUME LUNG 2 (nintedanib+pemetrexed vs placebo+pemetrexed); assay type: in vivo, human
Excerpt: Continuation until Progressive Disease (PD) or unacceptable toxicity with nintedanib, placebo, pemetrexed, or a combination thereof, was permitted. […] Primary endpoint was centrally assessed PFS. Secondary endpoints included OS, investigator-assessed PFS, Response Rate (RR), safety, and Quality of Life (QoL). Stepwise selection, using Cox proportional hazards modeling and a recursive partitioning tree, identified baseline variables prognostic for PFS in Arm B (placebo) of LUME LUNG 2. […] These methods were applied to the LUME LUNG 2 Data Monitoring Committee (DMC) dataset, to develop a hypothesis that was tested and validated by three steps: (i) internal confirmation using centrally assessed PFS and internal validation using OS data of the clinical trial LL2; (ii) external validation using the data from the primary analysis of the independent clinical trial LL1 (centrally assessed PFS and internal validation using OS data); and (iii) external validation using the final OS data of the clinical trial LL1.
as §1, §2

[2] = tested on: NSCLC after fast progression on first-line platinum doublet chemotherapy; conditions: TITAN; fast progressing patients who failed during 1st line platinum containing therapy; cited from earlier work
[3] = tested on: tumors with activating EGFR mutations or the Alk translocation; conditions: monotherapy; non-squamous patients with activating EGFR mutations or Alk translocation; cited from earlier work
[4] = LL1 squamous cell tumour histology
[5] = LL1 squamous cell, large tumour burden

COC(=O)c1ccc2c(c1)NC(=O)/C2=C(\Nc1ccc(N(C)C(=O)CN2CCN(C)CC2)cc1)c1ccccc1 [nintedanib, 3-Z-[1-(4-(N-((4-methyl-piperazin-1-yl)-methylcarbonyl)-N-methyl-amino)-anilino)-1-phenyl-methylene]-6-methoxycarbonyl-2-indolinone]
T/C (reduction of tumor size in % of the control) (Calu-6): T/C 24% @ 50 mg/kg/d | HR (OS) ([1]; LL1 adenocarcinoma): 0.83 | HR (PFS) ([1]; LL1 adenocarcinoma): 0.84 | benefit in fast progressing population with cut-off of 4 or 6 months ([1]; LL1 adenocarcinoma, t<4 mo or t<6 mo): confirmed | HR (OS) ([1]; LL1 adenocarcinoma, t<9 mo): 0.75 | HR (PFS) ([1]; LL1 adenocarcinoma, t<9 mo): 0.68 | HR (OS) ([1]; LL1 all NSCLC patients): 0.94 | HR (PFS) ([1]; LL1 all NSCLC patients): 0.85 | HR (OS) [1, 4]: 1.01 | HR (PFS) [1, 4]: 0.83 | Improvement of median OS of nintedanib versus placebo [1, 4]: No benefit; also recorded: None (OS) | HR (OS) [1, 5]: 0.82 | HR (PFS) [1, 5]: 0.71 | Improvement of median PFS of nintedanib versus placebo [1, 5]: 0.9 months (PFS) | median PFS ([1]; LL1 whole NSCLC patient population, centrally assessed): 3.5 months | T/C (reduction of tumor size in % of the control) (NCI-H460): T/C 54% @ 25 mg/kg/d | T/C (reduction of tumor size in % of the control) (FaDu): T/C 11% @ 100 mg/kg/d | T/C (reduction of tumor size in % of the control) (HT-29; HT-29, 100 mg/kg/d): T/C 16% @ 100 mg/kg/d | Efficacy (HT-29; HT-29 large tumors): tumor volume reduction | improvement in the median of both PFS and OS compared to placebo (NSCLC): superior or equal to one month | improvement in the median of both PFS and OS compared to placebo (NSCLC; adenocarcinoma NSCLC): ≥ 1.3 months | Efficacy (Rip-Tag): interference with tumor | T/C (reduction of tumor size in % of the control) (Caki-1): T/C 13% @ 100 mg/kg/d | T/C (reduction of tumor size in % of the control) (SKOV3): T/C 19% @ 50 mg/kg/d | T/C (reduction of tumor size in % of the control) (PAC-120): T/C 34% @ 100 mg/kg/d | T/C (reduction of tumor size in % of the control) (GS-9L syngeneic rat): T/C 32% @ 50 mg/kg/d | safety (advanced NSCLC tumours; LL2): no safety issues were identified | median PFS (advanced NSCLC tumours; LL2 ITT analysis, centrally reviewed PFS): 4.4 months | Disease control (advanced NSCLC tumours; LL2 ITT, versus placebo): significantly improved | HR (OS) (advanced NSCLC tumours; LL2 adenocarcinoma, t<9 mo): 0.87 | HR (PFS) (advanced NSCLC tumours; LL2 adenocarcinoma, t<9 mo): 0.79 | HR (OS) (advanced NSCLC tumours; LL2 all): 1.01 | HR (PFS) (advanced NSCLC tumours; LL2 all): 0.84 | Improvement of median OS of nintedanib versus placebo (advanced NSCLC tumours; LL2 all): No difference; also recorded: None (OS) | median improvement of time to deterioration of cough (advanced NSCLC tumours; LL2 fast progressing patients, nintedanib versus placebo): 3.7 months | median OS (advanced NSCLC tumours; LL2 t<9 mo patient population): 10.6 months | median PFS (advanced NSCLC tumours; LL2 t<9 mo patient population): 4.1 months

C#Cc1cccc(Nc2ncnc3cc(OCCOC)c(OCCOC)cc23)c1 [erlotinib]
efficacy in PFS and OS compared to docetaxel or pemetrexed [2]: did not show any superior efficacy | OS improvement [3]: no OS improvements have been observed | median PFS [3]: around 20 months

— patent US20160143906A1, “EFFICACIOUS TREATMENT OF NSCLC AND PREDICTIVE CLINICAL MARKER OF THE RESPONSIVENESS OF A TUMOUR TO A TREATMENT” (Boehringer Ingelheim International GmbH, priority 2013, published 2016)
